# Assay results as given in patent US9585867B2, “Cannabinod formulation for the sedation of a human or animal” (priority 2015, dated 2017).
# Read-outs that look alike come from different tables or passages of the source.
# Columns and labels:
# cannabinoid receptor = details: cited from earlier work
# dogs = details: cited from earlier work
# mice = details: cited from earlier work
# monkey = details: cited from earlier work
# monkeys [1] = details: cited from earlier work
# dog = details: cited from earlier work
# monkeys [2] = experiment: Repeated intravenous study with emulsified tetrahydrocannabinol in monkeys; type: in vivo; details: near-pure tetrahydrocannabinol
# Procedure: Subsequently, intravenous studies were repeated using tetrahydrocannabinol emulsified in a sesame oil, polysorbate 80, or saline vehicles at 15 mg/ml or 40 mg/ml. The emulsions were administered at a uniform rate of 2 ml/15 sec. Doses administered were 1, 4, 16, 64, 92, 128, 192 and 256 mg/kg. All monkeys injected with 92 mg/kg or less survived and completely recovered from all effects within two to four days. An analogous intravenous dosage for a 100 kg human would be 9,200 mg (9.2 g) of near-pure tetrahydrocannabinol. All monkeys injected with 128 mg/kg or more succumb within thirty minutes for all but one subject, which took one-hundred-and-eighty minutes to expire. An analogous lethal intravenous dosage for a 100 kg human would be 12,800 mg (12.8 g) of near-pure tetrahydrocannabinol.
# Histopathological changes found in the lungs of the deceased monkeys were like those described after the previous intravenous experiment. […] Behavioral changes preceding death were salivation, prostration, coma, and tremors.
# Behavioral and physiological changes described clinically in the surviving monkeys followed a consistent developmental sequence and were roughly dose related in severity and duration. Onset was fifteen minutes following injection and duration was up to forty-eight hours. Huddled posture and lethargy were the most persistent changes. Constipation, anorexia, and weight loss were noted. […]
# [3] = Inventor experimentation: intermuscular injection of tetrahydrocannabinol, incapacitation; type: in vivo, human; details: intermuscular injection of 5.0 mg; overall healthy, 100 kg person
# Procedure: If it is unnecessary to “immediately”, or to “near-immediately”, incapacitate a recipient, the inventive formulation may strictly consist of cannabinoids such as tetrahydrocannabinol. During instant inventor experimentation, an intermuscular injection of 5.0 mg of tetrahydrocannabinol rendered an overall healthy, 100 kg person, fully incapacitated within 10-30 seconds, with its effects lasting approximately four-to-six hours.
# monkeys [4] = details: cited from earlier work; remark: listed apart in the source
# laboratory animals = details: cited from earlier work
# rats = details: cited from earlier work
# [5] = intravenous emulsion 15 or 40 mg/ml, 2 ml/15 sec
compound,measurement,setting,value
CCCCCCC(C)(C)c1ccc([C@@H]2C[C@H](O)CC[C@H]2CCCO)c(O)c1 [CP-55940],potency relative to phyto-cannabinoid THC,cannabinoid receptor,many times more potent
CCCCCCC(C)(C)c1cc(O)c2c(c1)OC(C)(C)[C@@H]1CC=C(CO)C[C@@H]21 [HU-210],potency relative to phyto-cannabinoid THC,cannabinoid receptor,about 100 times
CCCCCc1cc(O)c2c(c1)OC(C)(C)[C@@H]1CCC(C)=C[C@@H]21 [tetrahydrocannabinol],time to complete recovery of survivors,dogs; dogs that survived the intravenous injection,five to nine
same,minimal lethal intravenous dose,"dogs; dogs, depending upon concentration",25 to 99 mg/kg
same,time to lethality after intravenous injection,"dogs; dogs, intravenous",within minutes
same,acute one dose LD50,"dogs; intravenous, dogs",100 mg/kg
same,LD50 dose,mice,28.6 mg per 42.47 kg of body weight
same,nonlethal oral consumption,monkey,3 g/kg
same,acute one dose LD50,"monkeys [1]; intravenous, monkeys, depending on concentration of the solution",15.6 to 62.5 mg/kg
same,time to complete recovery of survivors,monkeys [1]; monkeys that survived the intravenous injection,five to nine
same,minimal lethal intravenous dose,"monkeys [1]; monkeys, depending upon concentration",3.9 to 15.5 mg/kg
same,time to lethality after intravenous injection,"monkeys [1]; monkeys, intravenous",within minutes
same,nonlethal oral consumption,dog,3 g/kg
same,analogous intravenous dosage for a 100 kg human (survived dose),monkeys [2]; extrapolated from 92 mg/kg in monkeys,"9,200 mg"
same,analogous lethal intravenous dosage for a 100 kg human,monkeys [2]; extrapolated from 128 mg/kg in monkeys,"12,800 mg"
same,duration of effects,[3],four-to-six
same,time to full incapacitation,[3],10 to 30 s
same,fatalities,"monkeys [4]; 92 mg/kg intravenously, monkeys",no fatalities
same,time to death,"monkeys [4]; 128 mg/kg or more, the one remaining subject",one-hundred-and-eighty
same,dose at which all monkeys succumb,monkeys [4]; [5],≥ 128 mg/kg
same,dose at which all monkeys survived,monkeys [4]; [5],≤ 92 mg/kg
same,time to complete recovery from all effects,monkeys [4]; monkeys injected with 92 mg/kg or less,two to four
same,time to death,"monkeys [4]; monkeys injected with 128 mg/kg or more, all but one subject",thirty
same,time to severe respiratory depression and bradycardia after injection,monkeys [4]; monkeys that died,five
same,duration of behavioral and physiological changes,monkeys [4]; surviving monkeys,up to forty-eight
same,onset of behavioral and physiological changes following injection,monkeys [4]; surviving monkeys,fifteen
same,"time of maximal hypothermia, bradycardia and decreased respiratory rate post injection",monkeys [4]; surviving monkeys,two-to-six
same,lowest intravenous dosage which causes death,laboratory animals; intravenous,approximately 1000 mg per kg of body weight
same,typical lethal oral dosage,laboratory animals; oral,225-450 mg per kg of body weight
same,LD50 dose,rats,28.6 mg per 42.47 kg of body weight
same,time to lethality after intravenous injection,rats; intravenous,within minutes
